Measurements from PubChem BioAssay AID1845215 (Molecular Pharmacology Branch, DTP, NCI, 2023).

Test system: SW 1271 complex tumor spheroid viability
Assay: Anticancer human tumor SW 1271 cell line growth inhibition;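 further: spheroids exposed to agents for seven days before readout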;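 on viability, T/C: percent of DMSO vehicle control luminescence so 100% = vehicle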
Settings: for IC50: curve of first compound; for viability, T/C: stronger effect = lower value
How it was run: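 Complex tumor spheroids combined malignant cells with endothelial cells and mesenchymal stem cells. DNA-damaging drugs and DNA repair inhibitors were tested alone and in combination, at half-log dilutions down from clinical Cmax (top 10 microM if Cmax unknown), 0.25% DMSO final.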

[1] = second compound 0.003 µM, first compound 0.0316 µM
[2] = second compound 0.003 µM, first compound 0.1 µM
[3] = second compound 0.003 µM, first compound 0.316 µM
[4] = second compound 0.003 µM, first compound 1 µM
[5] = second compound 0.003 µM, first compound 3.16 µM
[6] = second compound 0.003 µM, first compound 10 µM
[7] = second compound 0.00949 µM, first compound 0.0316 µM
[8] = second compound 0.00949 µM, first compound 0.1 µM
[9] = second compound 0.00949 µM, first compound 0.316 µM
[10] = second compound 0.00949 µM, first compound 1 µM
[11] = second compound 0.00949 µM, first compound 3.16 µM
[12] = second compound 0.00949 µM, first compound 10 µM
[13] = second compound 0.03 µM, first compound 0.0316 µM
[14] = second compound 0.03 µM, first compound 0.1 µM
[15] = second compound 0.03 µM, first compound 0.316 µM
[16] = second compound 0.03 µM, first compound 1 µM
[17] = second compound 0.03 µM, first compound 3.16 µM
[18] = second compound 0.03 µM, first compound 10 µM
[19] = second compound 0.0949 µM, first compound 0.0316 µM
[20] = second compound 0.0949 µM, first compound 0.1 µM
[21] = second compound 0.0949 µM, first compound 0.316 µM
[22] = second compound 0.0949 µM, first compound 1 µM
[23] = second compound 0.0949 µM, first compound 3.16 µM
[24] = second compound 0.0949 µM, first compound 10 µM
[25] = second compound 0.3 µM, first compound 0.0316 µM
[26] = second compound 0.3 µM, first compound 0.1 µM
[27] = second compound 0.3 µM, first compound 0.316 µM
[28] = second compound 0.3 µM, first compound 1 µM
[29] = second compound 0.3 µM, first compound 3.16 µM
[30] = second compound 0.3 µM, first compound 10 µM
[31] = second compound 30 pM, first compound 0.00949 µM
[32] = second compound 30 pM, first compound 0.03 µM
[33] = second compound 30 pM, first compound 0.0949 µM
[34] = second compound 30 pM, first compound 0.3 µM
[35] = second compound 30 pM, first compound 0.949 µM
[36] = second compound 30 pM, first compound 3 µM
[37] = second compound 94.9 pM, first compound 0.00949 µM
[38] = second compound 94.9 pM, first compound 0.03 µM
[39] = second compound 94.9 pM, first compound 0.0949 µM
[40] = second compound 94.9 pM, first compound 0.3 µM
[41] = second compound 94.9 pM, first compound 0.949 µM
[42] = second compound 94.9 pM, first compound 3 µM
[43] = second compound 0.0003 µM, first compound 0.00949 µM
[44] = second compound 0.0003 µM, first compound 0.03 µM
[45] = second compound 0.0003 µM, first compound 0.0949 µM
[46] = second compound 0.0003 µM, first compound 0.3 µM
[47] = second compound 0.0003 µM, first compound 0.949 µM
[48] = second compound 0.0003 µM, first compound 3 µM
[49] = second compound 0.000949 µM, first compound 0.00949 µM
[50] = second compound 0.000949 µM, first compound 0.03 µM
[51] = second compound 0.000949 µM, first compound 0.0949 µM
[52] = second compound 0.000949 µM, first compound 0.3 µM
[53] = second compound 0.000949 µM, first compound 0.949 µM
[54] = second compound 0.000949 µM, first compound 3 µM
[55] = second compound 0.003 µM, first compound 0.00949 µM
[56] = second compound 0.003 µM, first compound 0.03 µM
[57] = second compound 0.003 µM, first compound 0.0949 µM
[58] = second compound 0.003 µM, first compound 0.3 µM
[59] = second compound 0.003 µM, first compound 0.949 µM
[60] = second compound 0.003 µM, first compound 3 µM

Compound: CC(C)n1c(=O)n(C)c2cnc3cc(F)c(-c4ccc(OCCCN5CCCCC5)nc4)cc3c21 + CC[C@@]1(O)C(=O)OCc2c1cc1n(c2=O)Cc2cc3c(CN(C)C)c(O)ccc3nc2-1
- IC50 (second compound 0.003 µM): < 31.6 nM
- IC50 (second compound 0.00949 µM): < 31.6 nM
- IC50 (second compound 0.03 µM): < 31.6 nM
- IC50 (second compound 0.0949 µM): < 31.6 nM
- IC50 (second compound 0.3 µM): < 31.6 nM
- viability, T/C [1]: 28.2%
- viability, T/C [2]: 26.8%
- viability, T/C [3]: 25%
- viability, T/C [4]: 27.7%
- viability, T/C [5]: 19.3%
- viability, T/C [6]: 7.91%
- viability, T/C [7]: 15.9%
- viability, T/C [8]: 17.9%
- viability, T/C [9]: 14.5%
- viability, T/C [10]: 12.2%
- viability, T/C [11]: 11.3%
- viability, T/C [12]: 5.27%
- viability, T/C [13]: 20.4%
- viability, T/C [14]: 17.7%
- viability, T/C [15]: 16%
- viability, T/C [16]: 15.8%
- viability, T/C [17]: 8.12%
- viability, T/C [18]: 3.67%
- viability, T/C [19]: 23.9%
- viability, T/C [20]: 24.6%
- viability, T/C [21]: 23.2%
- viability, T/C [22]: 19.8%
- viability, T/C [23]: 7.87%
- viability, T/C [24]: 3.44%
- viability, T/C [25]: 14.6%
- viability, T/C [26]: 13.2%
- viability, T/C [27]: 16.4%
- viability, T/C [28]: 16.1%
- viability, T/C [29]: 7.25%
- viability, T/C [30]: 4.47%

Compound: COc1ccc([C@@H](O)c2cc(-c3ncnc4cc(N5CCOCC5)ccc34)c(F)cc2Cl)nn1 + CC[C@@]1(O)C(=O)OCc2c1cc1n(c2=O)Cc2cc3c(CN(C)C)c(O)ccc3nc2-1
- IC50 (second compound 0.003 µM): 1230 nM
- IC50 (second compound 0.00949 µM): 103 nM
- IC50 (second compound 0.03 µM): < 31.6 nM
- IC50 (second compound 0.0949 µM): < 31.6 nM
- IC50 (second compound 0.3 µM): < 31.6 nM
- viability, T/C [1]: 83.3%
- viability, T/C [2]: 85.1%
- viability, T/C [3]: 75.2%
- viability, T/C [4]: 54.3%
- viability, T/C [5]: 26.9%
- viability, T/C [6]: 6.38%
- viability, T/C [7]: 57.9%
- viability, T/C [8]: 53%
- viability, T/C [9]: 37.9%
- viability, T/C [10]: 29.6%
- viability, T/C [11]: 19.6%
- viability, T/C [12]: 6.43%
- viability, T/C [13]: 31.5%
- viability, T/C [14]: 31.1%
- viability, T/C [15]: 28.8%
- viability, T/C [16]: 28.6%
- viability, T/C [17]: 19.9%
- viability, T/C [18]: 6.27%
- viability, T/C [19]: 27.9%
- viability, T/C [20]: 27.6%
- viability, T/C [21]: 25%
- viability, T/C [22]: 25.9%
- viability, T/C [23]: 21.7%
- viability, T/C [24]: 3.71%
- viability, T/C [25]: 13%
- viability, T/C [26]: 14.8%
- viability, T/C [27]: 15%
- viability, T/C [28]: 10.2%
- viability, T/C [29]: 1.72%
- viability, T/C [30]: 0.2%

Compound: CNCc1ccc(-c2cc(-c3nc(-c4ccc(S(=O)(=O)C(C)C)cc4)cnc3N)on2)cc1 + COc1cc2c(cc1O)CCNC21CSC2c3c(OC(C)=O)c(C)c4c(c3C(COC1=O)N1C(O)C3Cc5cc(C)c(OC)c(O)c5C(C21)N3C)OCO4
- IC50 (second compound 30 pM): 117 nM
- IC50 (second compound 94.9 pM): 26.6 nM
- IC50 (second compound 0.0003 µM): < 9.49 nM
- IC50 (second compound 0.000949 µM): < 9.49 nM
- IC50 (second compound 0.003 µM): < 9.49 nM
- viability, T/C [31]: 89.6%
- viability, T/C [32]: 89.7%
- viability, T/C [33]: 55.5%
- viability, T/C [34]: 18.8%
- viability, T/C [35]: 11.3%
- viability, T/C [36]: 0.15%
- viability, T/C [37]: 64%
- viability, T/C [38]: 42.6%
- viability, T/C [39]: 37%
- viability, T/C [40]: 27.9%
- viability, T/C [41]: 14.7%
- viability, T/C [42]: 0.12%
- viability, T/C [43]: 28.8%
- viability, T/C [44]: 35.5%
- viability, T/C [45]: 38.5%
- viability, T/C [46]: 35%
- viability, T/C [47]: 19.5%
- viability, T/C [48]: 0.15%
- viability, T/C [49]: 5.31%
- viability, T/C [50]: 7.14%
- viability, T/C [51]: 3.92%
- viability, T/C [52]: 2.05%
- viability, T/C [53]: 1.95%
- viability, T/C [54]: 0.11%
- viability, T/C [55]: 0.11%
- viability, T/C [56]: 0.11%
- viability, T/C [57]: 0.09%
- viability, T/C [58]: 0.09%
- viability, T/C [59]: 0.1%
- viability, T/C [60]: 0.16%

Compound: Cn1ncnc1[C@H]1c2n[nH]c(=O)c3cc(F)cc(c23)N[C@@H]1c1ccc(F)cc1 + COc1cc2c(cc1O)CCNC21CSC2c3c(OC(C)=O)c(C)c4c(c3C(COC1=O)N1C(O)C3Cc5cc(C)c(OC)c(O)c5C(C21)N3C)OCO4
- IC50 (second compound 30 pM): 12.5 nM
- IC50 (second compound 94.9 pM): < 9.49 nM
- IC50 (second compound 0.0003 µM): < 9.49 nM
- IC50 (second compound 0.000949 µM): < 9.49 nM
- IC50 (second compound 0.003 µM): < 9.49 nM
- viability, T/C [31]: 53.8%
- viability, T/C [32]: 38.3%
- viability, T/C [33]: 30.2%
- viability, T/C [34]: 36.5%
- viability, T/C [35]: 32.9%
- viability, T/C [36]: 26.3%
- viability, T/C [37]: 37.2%
- viability, T/C [38]: 33.5%
- viability, T/C [39]: 32.7%
- viability, T/C [40]: 32.9%
- viability, T/C [41]: 34.7%
- viability, T/C [42]: 20.4%
- viability, T/C [43]: 34.7%
- viability, T/C [44]: 35%
- viability, T/C [45]: 27.7%
- viability, T/C [46]: 32.8%
- viability, T/C [47]: 27.4%
- viability, T/C [48]: 10.2%
- viability, T/C [49]: 8.93%
- viability, T/C [50]: 4.22%
- viability, T/C [51]: 2.24%
- viability, T/C [52]: 5.88%
- viability, T/C [53]: 2.29%
- viability, T/C [54]: 0.31%
- viability, T/C [55]: 0.1%
- viability, T/C [56]: 0.09%
- viability, T/C [57]: 0.09%
- viability, T/C [58]: 0.1%
- viability, T/C [59]: 0.09%
- viability, T/C [60]: 0.15%

Compound: O=C(c1cc(Cc2n[nH]c(=O)c3ccccc23)ccc1F)N1CCN(C(=O)C2CC2)CC1 + COc1cc2c(cc1O)CCNC21CSC2c3c(OC(C)=O)c(C)c4c(c3C(COC1=O)N1C(O)C3Cc5cc(C)c(OC)c(O)c5C(C21)N3C)OCO4
- IC50 (second compound 30 pM): 1360 nM
- IC50 (second compound 94.9 pM): 206 nM
- IC50 (second compound 0.0003 µM): < 94.9 nM
- IC50 (second compound 0.000949 µM): < 94.9 nM
- IC50 (second compound 0.003 µM): < 94.9 nM
- viability, T/C [33]: 87.3%
- viability, T/C [34]: 70.1%
- viability, T/C [35]: 57.6%
- viability, T/C [36]: 36.5%
- viability, T/C (second compound 30 pM, first compound 9.49 µM): 25.3%
- viability, T/C (second compound 30 pM, first compound 30 µM): 11.8%
- viability, T/C [39]: 54.3%
- viability, T/C [40]: 53.6%
- viability, T/C [41]: 31.2%
- viability, T/C [42]: 29.9%
- viability, T/C (second compound 94.9 pM, first compound 9.49 µM): 28.6%
- viability, T/C (second compound 94.9 pM, first compound 30 µM): 11.7%
- viability, T/C [45]: 28%
- viability, T/C [46]: 35.6%
- viability, T/C [47]: 32.8%
- viability, T/C [48]: 31.1%
- viability, T/C (second compound 0.0003 µM, first compound 9.49 µM): 24.2%
- viability, T/C (second compound 0.0003 µM, first compound 30 µM): 3.66%
- viability, T/C [51]: 4.23%
- viability, T/C [52]: 5.88%
- viability, T/C [53]: 3.15%
- viability, T/C [54]: 1.8%
- viability, T/C (second compound 0.000949 µM, first compound 9.49 µM): 1.43%
- viability, T/C (second compound 0.000949 µM, first compound 30 µM): 0.13%
- viability, T/C [57]: 0.19%
- viability, T/C [58]: 0.19%
- viability, T/C [59]: 0.12%
- viability, T/C [60]: 0.13%
- viability, T/C (second compound 0.003 µM, first compound 9.49 µM): 0.15%
- viability, T/C (second compound 0.003 µM, first compound 30 µM): 0.21%
